Experimental data from ChEMBL document CHEMBL1201862, “PubChem BioAssay data set” (2004).
The source made the active and inactive calls.

How the values were obtained:
Caspase-3 = molecular target: T1, Caspase-3 (Homo sapiens, UniProt P42574); format: functional;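 note: Dose-response selectivity test against caspase-3 for candidate inhibitors of sentrin-specific proteases (SENPs)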
T1 sequence (P42574 whole entry): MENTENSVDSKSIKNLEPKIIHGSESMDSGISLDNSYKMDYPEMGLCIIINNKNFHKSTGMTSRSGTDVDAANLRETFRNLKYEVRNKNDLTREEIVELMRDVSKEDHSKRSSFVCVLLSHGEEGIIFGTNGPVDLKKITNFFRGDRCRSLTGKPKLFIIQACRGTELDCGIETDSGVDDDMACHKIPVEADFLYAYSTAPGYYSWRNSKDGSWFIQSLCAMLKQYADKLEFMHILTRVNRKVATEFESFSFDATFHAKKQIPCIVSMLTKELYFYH

INS1 = test: beta cell apoptosis inhibitors, cytokine rescue, dose response, luminescence, retest (AID 449756); format: functional, cell-based; settings: Rattus norvegicus;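 note: cell death triggered by IL-1 beta plus TNF-alpha plus IFN-gamma mixture; protective hits raise ATP signal compared with cytokine alone wells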
[1] = molecular target: T2, Sentrin-specific protease 7 (Homo sapiens, UniProt Q9BQF6); format: functional;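 note: Luminescence-based dose-response confirmation of ultra-high-throughput screening hits, measuring inhibition of SENP7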
T2 sequence (Q9BQF6 whole entry): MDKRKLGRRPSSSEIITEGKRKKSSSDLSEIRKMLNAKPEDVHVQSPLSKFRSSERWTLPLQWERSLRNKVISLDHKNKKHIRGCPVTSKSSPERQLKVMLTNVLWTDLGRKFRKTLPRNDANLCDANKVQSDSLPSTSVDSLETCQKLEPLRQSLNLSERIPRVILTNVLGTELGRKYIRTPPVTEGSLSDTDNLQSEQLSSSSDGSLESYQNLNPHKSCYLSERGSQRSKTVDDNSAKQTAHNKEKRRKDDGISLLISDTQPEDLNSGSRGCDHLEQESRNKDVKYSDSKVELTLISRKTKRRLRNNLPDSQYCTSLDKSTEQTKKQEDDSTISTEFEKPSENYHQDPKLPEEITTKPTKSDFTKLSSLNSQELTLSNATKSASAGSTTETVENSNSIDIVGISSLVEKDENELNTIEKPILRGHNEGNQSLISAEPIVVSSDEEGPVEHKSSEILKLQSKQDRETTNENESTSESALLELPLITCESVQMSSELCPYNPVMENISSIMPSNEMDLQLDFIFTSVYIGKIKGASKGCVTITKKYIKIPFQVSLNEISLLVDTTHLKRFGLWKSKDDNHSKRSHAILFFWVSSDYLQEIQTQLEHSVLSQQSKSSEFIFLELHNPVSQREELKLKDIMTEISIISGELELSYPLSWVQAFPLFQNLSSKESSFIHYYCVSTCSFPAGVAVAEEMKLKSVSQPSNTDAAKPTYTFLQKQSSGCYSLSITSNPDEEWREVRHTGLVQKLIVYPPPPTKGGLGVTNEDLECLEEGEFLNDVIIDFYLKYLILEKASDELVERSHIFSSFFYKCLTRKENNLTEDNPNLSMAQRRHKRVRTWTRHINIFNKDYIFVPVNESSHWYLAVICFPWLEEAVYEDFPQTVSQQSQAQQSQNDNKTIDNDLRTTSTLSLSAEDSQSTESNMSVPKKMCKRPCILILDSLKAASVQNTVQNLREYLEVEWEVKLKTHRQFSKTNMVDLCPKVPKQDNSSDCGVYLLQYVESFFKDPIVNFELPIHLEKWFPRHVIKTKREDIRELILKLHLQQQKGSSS

[2] = molecular target: T3, Sentrin-specific protease 8 (Homo sapiens, UniProt Q96LD8); format: functional;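 note: luminescence read-out of SENP8 inhibition, dose-response confirmation following an ultra-high-throughput screen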
T3 sequence (Q96LD8 whole entry): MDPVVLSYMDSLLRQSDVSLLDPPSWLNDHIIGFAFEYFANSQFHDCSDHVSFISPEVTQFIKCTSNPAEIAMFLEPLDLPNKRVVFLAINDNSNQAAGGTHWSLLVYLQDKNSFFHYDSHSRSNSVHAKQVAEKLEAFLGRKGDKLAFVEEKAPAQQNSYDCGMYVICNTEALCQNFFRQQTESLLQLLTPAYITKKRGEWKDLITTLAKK

[3] = molecular target: T4, Sentrin-specific protease 6 (Homo sapiens, UniProt Q9GZR1); format: functional;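 note: Luminescence-based dose-response confirmatory assay of SENP6 inhibition, following up an ultra-high-throughput screen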
T4 sequence (Q9GZR1 whole entry): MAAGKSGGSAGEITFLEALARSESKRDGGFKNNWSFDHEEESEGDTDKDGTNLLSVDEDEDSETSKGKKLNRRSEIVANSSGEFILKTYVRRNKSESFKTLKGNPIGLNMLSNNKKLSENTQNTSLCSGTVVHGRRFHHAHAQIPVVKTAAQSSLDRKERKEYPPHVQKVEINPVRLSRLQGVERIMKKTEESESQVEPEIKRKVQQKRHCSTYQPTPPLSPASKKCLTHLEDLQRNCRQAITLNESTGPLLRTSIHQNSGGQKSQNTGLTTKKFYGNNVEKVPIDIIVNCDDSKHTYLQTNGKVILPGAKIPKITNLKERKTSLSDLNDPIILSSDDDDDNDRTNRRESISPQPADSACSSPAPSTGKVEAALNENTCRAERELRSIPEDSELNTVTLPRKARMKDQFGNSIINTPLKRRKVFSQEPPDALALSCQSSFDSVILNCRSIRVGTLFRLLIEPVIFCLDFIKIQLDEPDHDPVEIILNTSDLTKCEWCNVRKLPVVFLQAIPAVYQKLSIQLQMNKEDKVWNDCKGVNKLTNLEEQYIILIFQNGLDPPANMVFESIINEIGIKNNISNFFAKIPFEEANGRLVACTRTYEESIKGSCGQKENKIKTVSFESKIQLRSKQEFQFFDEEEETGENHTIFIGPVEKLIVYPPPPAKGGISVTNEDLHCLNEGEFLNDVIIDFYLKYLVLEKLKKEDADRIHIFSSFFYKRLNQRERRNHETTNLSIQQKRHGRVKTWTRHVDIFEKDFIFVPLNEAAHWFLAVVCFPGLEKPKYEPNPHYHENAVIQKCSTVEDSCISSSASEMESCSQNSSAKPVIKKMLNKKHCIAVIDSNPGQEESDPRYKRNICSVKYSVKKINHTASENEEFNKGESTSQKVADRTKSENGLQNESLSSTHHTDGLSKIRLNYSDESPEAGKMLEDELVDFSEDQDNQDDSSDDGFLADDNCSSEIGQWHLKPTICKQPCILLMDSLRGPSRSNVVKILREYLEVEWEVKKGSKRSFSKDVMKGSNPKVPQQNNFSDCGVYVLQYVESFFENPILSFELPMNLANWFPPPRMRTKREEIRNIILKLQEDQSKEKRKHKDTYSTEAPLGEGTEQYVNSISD

[4] = molecular target: T5, Corticotropin-releasing factor receptor 2/Corticotropin-releasing factor-binding protein (Homo sapiens, UniProt P24387+Q13324); test: activators of CRF receptor 2 with binding protein – uHTS hits, confirmation (AID 602473); format: functional; settings: read-out: EC50_Mean
T5 sequence (Q13324 whole entry): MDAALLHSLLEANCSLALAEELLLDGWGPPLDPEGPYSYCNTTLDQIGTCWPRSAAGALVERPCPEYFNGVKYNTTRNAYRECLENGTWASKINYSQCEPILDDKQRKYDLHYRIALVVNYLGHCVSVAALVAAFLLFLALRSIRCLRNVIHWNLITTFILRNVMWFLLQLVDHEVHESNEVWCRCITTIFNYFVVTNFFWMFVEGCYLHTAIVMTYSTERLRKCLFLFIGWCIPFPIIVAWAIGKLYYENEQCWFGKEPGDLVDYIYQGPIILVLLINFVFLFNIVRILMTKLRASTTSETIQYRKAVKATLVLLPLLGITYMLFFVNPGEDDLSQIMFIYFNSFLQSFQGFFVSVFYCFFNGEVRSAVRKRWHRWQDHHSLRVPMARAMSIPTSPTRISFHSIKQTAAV
T5 sequence (P24387 whole entry): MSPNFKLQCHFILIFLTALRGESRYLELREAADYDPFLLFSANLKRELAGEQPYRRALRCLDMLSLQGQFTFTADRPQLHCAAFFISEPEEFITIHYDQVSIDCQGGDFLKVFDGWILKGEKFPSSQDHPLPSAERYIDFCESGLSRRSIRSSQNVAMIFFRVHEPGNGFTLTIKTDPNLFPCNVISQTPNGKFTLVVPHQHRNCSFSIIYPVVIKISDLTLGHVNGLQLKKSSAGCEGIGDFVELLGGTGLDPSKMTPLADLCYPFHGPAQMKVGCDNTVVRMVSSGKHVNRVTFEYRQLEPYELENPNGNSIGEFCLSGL

[5] = molecular target: T6, Short transient receptor potential channel 4 (Mus musculus, UniProt Q9QUQ5); test: mouse TRPC4 channel activators, dose response, cell-based, HEK293 TRPC4/mu-opioid, Fluo-4 calcium (AID 434937); format: functional
T6 sequence (Q9QUQ5 whole entry): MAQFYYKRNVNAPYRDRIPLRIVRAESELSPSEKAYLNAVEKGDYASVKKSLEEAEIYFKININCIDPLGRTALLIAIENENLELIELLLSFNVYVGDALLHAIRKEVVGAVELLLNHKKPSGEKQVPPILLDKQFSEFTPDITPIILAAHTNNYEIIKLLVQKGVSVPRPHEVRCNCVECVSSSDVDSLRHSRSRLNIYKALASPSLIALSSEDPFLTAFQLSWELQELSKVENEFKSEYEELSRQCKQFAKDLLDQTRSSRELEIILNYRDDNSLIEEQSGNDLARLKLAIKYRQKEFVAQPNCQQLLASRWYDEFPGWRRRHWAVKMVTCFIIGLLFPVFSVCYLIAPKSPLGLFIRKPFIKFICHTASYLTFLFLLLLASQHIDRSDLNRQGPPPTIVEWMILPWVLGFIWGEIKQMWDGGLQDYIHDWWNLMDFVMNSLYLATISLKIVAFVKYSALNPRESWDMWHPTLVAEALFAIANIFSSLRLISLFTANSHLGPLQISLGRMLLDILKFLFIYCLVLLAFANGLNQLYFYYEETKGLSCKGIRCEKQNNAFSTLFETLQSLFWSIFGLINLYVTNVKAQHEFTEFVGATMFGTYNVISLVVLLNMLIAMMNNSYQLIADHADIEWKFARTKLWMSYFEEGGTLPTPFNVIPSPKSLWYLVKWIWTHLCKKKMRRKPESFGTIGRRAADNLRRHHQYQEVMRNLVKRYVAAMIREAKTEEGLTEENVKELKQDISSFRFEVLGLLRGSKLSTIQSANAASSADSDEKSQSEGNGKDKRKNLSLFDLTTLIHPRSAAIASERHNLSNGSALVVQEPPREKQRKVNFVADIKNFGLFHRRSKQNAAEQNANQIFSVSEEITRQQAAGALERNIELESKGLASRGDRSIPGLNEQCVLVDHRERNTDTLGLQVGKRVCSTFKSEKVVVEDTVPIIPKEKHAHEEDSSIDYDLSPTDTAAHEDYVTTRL

[6] = molecular target: T7, High affinity choline transporter 1 (Homo sapiens, UniProt Q9GZV3); test: CHT inhibitors, dose response, cell-based, 5-point CRC, membrane potential dye (AID 504840); format: functional
T7 sequence (Q9GZV3 whole entry): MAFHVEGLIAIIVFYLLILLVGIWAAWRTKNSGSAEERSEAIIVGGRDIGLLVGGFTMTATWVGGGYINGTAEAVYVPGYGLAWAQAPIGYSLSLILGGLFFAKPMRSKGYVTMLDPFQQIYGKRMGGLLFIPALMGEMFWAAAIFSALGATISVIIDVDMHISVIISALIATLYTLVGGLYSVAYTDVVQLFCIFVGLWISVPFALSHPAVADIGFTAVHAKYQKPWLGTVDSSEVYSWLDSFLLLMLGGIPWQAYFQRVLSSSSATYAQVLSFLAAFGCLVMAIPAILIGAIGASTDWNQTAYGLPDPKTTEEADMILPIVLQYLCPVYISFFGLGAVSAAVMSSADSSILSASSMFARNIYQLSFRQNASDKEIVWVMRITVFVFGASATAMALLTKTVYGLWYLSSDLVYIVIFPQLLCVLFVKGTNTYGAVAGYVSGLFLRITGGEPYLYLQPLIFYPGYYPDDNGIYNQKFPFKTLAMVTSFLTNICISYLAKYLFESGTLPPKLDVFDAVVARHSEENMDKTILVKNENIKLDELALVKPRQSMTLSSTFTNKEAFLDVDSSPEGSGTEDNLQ

[7] = molecular target: Induced myeloid leukemia cell differentiation protein Mcl-1 (Homo sapiens, UniProt Q07820); format: functional
[8] = HEp-2 cell cytotoxicity, dose response, cytotoxicity control for RSV inhibitor project, HTS (AID 2410); format: functional; settings: human respiratory syncytial virus
[9] = molecular target: Glyceraldehyde-3-phosphate dehydrogenase (Homo sapiens, UniProt P04406)
Vero = test: cells; format: functional; settings: Chlorocebus sabaeus

Sequence of Glyceraldehyde-3-phosphate dehydrogenase (P04406 whole entry): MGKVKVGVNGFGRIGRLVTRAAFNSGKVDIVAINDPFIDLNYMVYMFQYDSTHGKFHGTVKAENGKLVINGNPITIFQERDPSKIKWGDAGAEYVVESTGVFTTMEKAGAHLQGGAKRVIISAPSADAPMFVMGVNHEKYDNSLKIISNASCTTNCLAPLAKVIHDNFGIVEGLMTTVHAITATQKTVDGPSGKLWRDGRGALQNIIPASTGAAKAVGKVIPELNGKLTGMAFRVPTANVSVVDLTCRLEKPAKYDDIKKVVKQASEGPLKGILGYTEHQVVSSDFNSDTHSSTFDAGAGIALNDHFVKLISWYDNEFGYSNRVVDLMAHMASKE
Sequence of Induced myeloid leukemia cell differentiation protein Mcl-1 (Q07820 whole entry): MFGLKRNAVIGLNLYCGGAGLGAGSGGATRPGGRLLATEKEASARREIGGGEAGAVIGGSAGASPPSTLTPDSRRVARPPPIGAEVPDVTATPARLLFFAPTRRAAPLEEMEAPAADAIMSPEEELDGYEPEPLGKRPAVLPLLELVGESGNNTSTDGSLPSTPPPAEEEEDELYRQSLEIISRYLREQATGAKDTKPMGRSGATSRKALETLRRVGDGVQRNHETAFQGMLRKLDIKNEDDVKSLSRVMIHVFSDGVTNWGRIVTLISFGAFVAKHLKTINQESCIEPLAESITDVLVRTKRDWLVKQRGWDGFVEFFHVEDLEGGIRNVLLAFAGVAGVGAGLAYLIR

Row | SMILES | IC50 (Caspase-3) | IC50 [1] | IC50 [2] | IC50 [3] | also measured
1 | O=C(Nc1ccc(-c2noc(-c3cccs3)n2)cc1)c1cccnc1 | 54.8 µM (active) | 7.2 µM (active) | > 100 µM (inactive) | 76.2 µM (active) | AC50 (INS1): 6.36 µM (active)
2 | Cn1c2ccccc2c(=O)c2c(=O)n(C3CCCCCC3)c(C3CCCCC3)nc21 |  |  |  |  | EC50 [4]: 4.04 µM (active)
3 | COc1ccc(NC(=O)c2csc3c2CCCC3)cc1 | 19.2 µM (active) | 7.25 µM (active) | > 100 µM (inactive) | > 100 µM (inactive) | 
4 | COc1cc(OC)cc(C(=O)N[C@H](C(=O)OCC(=O)NC(C)c2ccccc2)C(C)C)c1 (stereo not given in full) |  |  |  |  | EC50 [5]: 6.68 µM (active); EC50 [4]: 16.4 µM (active)
5 | Cn1c(=O)[nH]c2nnc(-c3ccc(Cl)c(Cl)c3)nc2c1=O |  |  |  |  | IC50 [6]: 11.2 µM (active)
6 | C#CC[N+]1(CC#Cc2cccc(C)c2)CCCCC1 |  |  |  |  | IC50 [6]: 12 µM (active)
7 | O=c1c2ccccc2nc(-c2ccco2)n1-c1cccnc1 |  |  |  |  | IC50 [7]: < 0.4 µM (not active)
8 | CCO/C=C1\C(=O)N(c2ccccc2)C(=O)c2ccccc21 | 6.63 µM (active) | 36.9 µM (active) | 50.7 µM (active) | 16.6 µM (active) | 
9 | C=CCn1c2ccccc2c(=O)c2cc(C#Cc3ccccn3)ccc21 | 17.5 µM (active) | 5.93 µM (active) | 20.8 µM (active) | 14.1 µM (active) | CC50 [8]: 25.1 µM (active)
10 | CCN1CCN(C2=C(Cl)C(=O)N(c3ccc(C(F)(F)F)cc3)C2=O)CC1 |  |  |  |  | IC50 [9]: > 50 µM (inconclusive)
11 | CSc1ccc(/C=C/C(=O)c2ccc(O)cc2)cc1 | 19.9 µM (active) | 4.77 µM (active) | 13.4 µM (active) | 9.4 µM (active) | CC50 (Vero): 23.8 µM (active)
